Experimental data reported in ChEMBL document CHEMBL1201862, “PubChem BioAssay data set” (2004).
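These data come from cells grown in 96-well plates and exposed to compound for 48 hours at five concentrations. GI50 marks 50% less growth.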 Active and inactive are the calls of the source. Cut-off read from the data, not from the text of the source: active = GI50 up to about 1.1 µM and inactive = higher.

Tests used:
Experiment in all cases: inhibition of tumour cell growth, NCI panel, 48 h
[1] = tested on: HT-29
[2] = tested on: HCT-116
[3] = tested on: SF-268
[4] = tested on: HL-60
[5] = tested on: MCF7
[6] = tested on: TK-10
[7] = tested on: HCT-15
[8] = tested on: MDA-MB-231
[9] = tested on: OVCAR-5
[10] = tested on: T47D
[11] = tested on: KM12
[12] = tested on: SK-MEL-28
[13] = tested on: MDA-N
[14] = tested on: SK-OV-3
[15] = tested on: COLO 205
[16] = tested on: SNB-19
[17] = tested on: SW-620
[18] = tested on: IGROV-1
[19] = tested on: A498
[20] = tested on: SK-MEL-2
[21] = tested on: NCI-H226
[22] = tested on: A549
[23] = tested on: SK-MEL-5
[24] = tested on: BT-549
[25] = tested on: SF-539
[26] = tested on: UACC-257
[27] = tested on: UACC-62
[28] = tested on: HOP-62
[29] = tested on: UO-31
[30] = tested on: CCRF-CEM
[31] = tested on: SF-295
[32] = tested on: M14
[33] = tested on: NCI/ADR-RES
[34] = tested on: Malme-3M
[35] = tested on: OVCAR-8
[36] = tested on: HOP-92
[37] = tested on: DU-145
[38] = tested on: SN12C
[39] = tested on: 786-0
[40] = tested on: OVCAR-3
[41] = tested on: LOX IMVI
[42] = tested on: MDA-MB-435
[43] = tested on: RPMI-8226
[44] = tested on: K562
[45] = tested on: Hs-578T
[46] = tested on: NCI-H460
[47] = tested on: U-251
[48] = tested on: MOLT-4
[49] = tested on: ACHN
[50] = tested on: PC-3
[51] = tested on: RXF 393
[52] = tested on: EKVX
[53] = tested on: OVCAR-4
[54] = tested on: NCI-H522
[55] = tested on: NCI-H23
[56] = tested on: CAKI-1
[57] = tested on: SNB-75
[58] = tested on: SR
[59] = tested on: HCC 2998

For `N#Cc1cc(Sc2ccc(N)c(C#N)c2)ccc1N`, the GI50 [1] was 13.6 µM (inactive), the GI50 [2] was 12.1 µM (inactive) and the GI50 [3] was 18 µM (inactive). The GI50 [4] was 1.87 µM (inactive), the GI50 [5] was 15.8 µM (inactive) and the GI50 [6] was 65.6 µM (inactive). For the same compound, the GI50 [7] was 9.51 µM, the GI50 [8] was 40.7 µM (inactive) and the GI50 [9] was 29.3 µM (inactive). The GI50 [10] was 29 µM (inactive), the GI50 [11] was 8.63 µM (inactive) and the GI50 [12] was 55.2 µM (inactive). The GI50 [13] was 4.03 µM (inactive), the GI50 [14] was 23.1 µM (inactive) and the GI50 [15] was 8.59 µM (inactive). The GI50 [16] was 14.8 µM (inactive), the GI50 [17] was 13.3 µM (inactive) and the GI50 [18] was 25.1 µM (inactive). For the same compound, the GI50 [19] was 43.8 µM (inactive), the GI50 [20] was 30.3 µM (inactive) and the GI50 [21] was 19.6 µM (inactive). For the same compound, the GI50 [22] was 29.9 µM (inactive), the GI50 [23] was 15.3 µM (inactive) and the GI50 [24] was 19 µM (inactive). The GI50 [25] was 11.1 µM (inactive), the GI50 [26] was 26.9 µM (inactive) and the GI50 [27] was 14.8 µM (inactive). For the same compound, the GI50 [28] was 41.9 µM (inactive), the GI50 [29] was 17.7 µM (inactive) and the GI50 [30] was 9.64 µM (inactive). For the same compound, the GI50 [31] was 17.6 µM (inactive), the GI50 [32] was 11.9 µM (inactive) and the GI50 [33] was 13.3 µM (inactive). The GI50 [34] was 2.8 µM (inactive), the GI50 [35] was 20.4 µM (inactive) and the GI50 [36] was 21.7 µM (inactive). The GI50 [37] was 24.9 µM (inactive), the GI50 [38] was 48.4 µM (inactive) and the GI50 [39] was 17.6 µM (inactive). For the same compound, the GI50 [40] was 34.7 µM (inactive), the GI50 [41] was 15.8 µM (inactive) and the GI50 [42] was 2.55 µM (inactive). For the same compound, the GI50 [43] was 12.8 µM (inactive), the GI50 [44] was 3.44 µM (inactive) and the GI50 [45] was 12.6 µM (inactive). The GI50 [46] was 15.5 µM (inactive), the GI50 [47] was 29.3 µM (inactive) and the GI50 [48] was 25.4 µM (inactive). For the same compound, the GI50 [49] was 31.2 µM (inactive), the GI50 [50] was 22.8 µM (inactive) and the GI50 [51] was 29.4 µM (inactive). The GI50 [52] was 16 µM (inactive) and the GI50 [53] was 20.4 µM (inactive).

With `Nc1ccc2[nH]cc(CCC(=O)O)c2c1` the GI50 [1] was > 100 µM (inactive), the GI50 [2] was > 100 µM (inactive) and the GI50 [3] was > 100 µM (inactive). For the same compound, the GI50 [4] was 27.3 µM (inactive), the GI50 [5] was > 100 µM (inactive) and the GI50 [6] was > 100 µM (inactive). For the same compound, the GI50 [7] was greater than 100 µM, the GI50 [54] was > 100 µM (inactive) and the GI50 [55] was > 100 µM (inactive). The GI50 [8] was > 100 µM (inactive), the GI50 [9] was > 100 µM (inactive) and the GI50 [10] was > 100 µM (inactive). The GI50 [11] was > 100 µM (inactive), the GI50 [56] was > 100 µM (inactive) and the GI50 [12] was > 100 µM (inactive). For the same compound, the GI50 [13] was > 100 µM (inactive), the GI50 [14] was > 100 µM (inactive) and the GI50 [15] was > 100 µM (inactive). The GI50 [16] was > 100 µM (inactive), the GI50 [17] was 88.1 µM (inactive) and the GI50 [18] was > 100 µM (inactive). The GI50 [19] was > 100 µM (inactive), the GI50 [20] was > 100 µM (inactive) and the GI50 [21] was > 100 µM (inactive). The GI50 [22] was > 100 µM (inactive), the GI50 [23] was > 100 µM (inactive) and the GI50 [24] was > 100 µM (inactive). The GI50 [25] was > 100 µM (inactive), the GI50 [26] was > 100 µM (inactive) and the GI50 [27] was > 100 µM (inactive). The GI50 [28] was > 100 µM (inactive), the GI50 [29] was > 100 µM (inactive) and the GI50 [30] was 9.48 µM (inactive). The GI50 [31] was > 100 µM (inactive), the GI50 [57] was 46.1 µM (inactive) and the GI50 [32] was > 100 µM (inactive). For the same compound, the GI50 [33] was > 100 µM (inactive), the GI50 [34] was 28.8 µM (inactive) and the GI50 [35] was > 100 µM (inactive). The GI50 [37] was > 100 µM (inactive), the GI50 [38] was > 100 µM (inactive) and the GI50 [39] was > 100 µM (inactive). For the same compound, the GI50 [40] was > 100 µM (inactive), the GI50 [41] was > 100 µM (inactive) and the GI50 [42] was > 100 µM (inactive). The GI50 [43] was > 100 µM (inactive), the GI50 [45] was > 100 µM (inactive) and the GI50 [47] was > 100 µM (inactive). For the same compound, the GI50 [48] was > 100 µM (inactive), the GI50 [49] was > 100 µM (inactive) and the GI50 [50] was > 100 µM (inactive). For the same compound, the GI50 [51] was > 100 µM (inactive), the GI50 [52] was > 100 µM (inactive) and the GI50 [53] was > 100 µM (inactive).

`Cc1cc(O)c(C(C)C)cc1NC(=O)Nc1cccc2ccccc12` was tested, and the GI50 [1] was 17.5 µM (inactive), the GI50 [2] was 15.6 µM (inactive) and the GI50 [3] was 17.3 µM (inactive). For the same compound, the GI50 [4] was 23.8 µM (inactive), the GI50 [6] was 18.2 µM (inactive) and the GI50 [7] was 20.7 µM. The GI50 [54] was 15.1 µM (inactive), the GI50 [55] was 19.3 µM (inactive) and the GI50 [8] was 17.7 µM (inactive). The GI50 [9] was 17.8 µM (inactive), the GI50 [10] was 13.2 µM (inactive) and the GI50 [11] was 15.7 µM (inactive). The GI50 [56] was 16.2 µM (inactive), the GI50 [12] was 23.2 µM (inactive) and the GI50 [13] was 12.7 µM (inactive). For the same compound, the GI50 [16] was 11.8 µM (inactive), the GI50 [17] was 27.9 µM (inactive) and the GI50 [18] was 14.3 µM (inactive). The GI50 [19] was 13.1 µM (inactive), the GI50 [20] was 15.3 µM (inactive) and the GI50 [21] was 19.5 µM (inactive). The GI50 [22] was 17.5 µM (inactive), the GI50 [23] was 12.5 µM (inactive) and the GI50 [24] was 17.2 µM (inactive). For the same compound, the GI50 [26] was 17.5 µM (inactive), the GI50 [27] was 13 µM (inactive) and the GI50 [28] was 16.4 µM (inactive). The GI50 [29] was 17.1 µM (inactive), the GI50 [31] was 13.8 µM (inactive) and the GI50 [32] was 18 µM (inactive). For the same compound, the GI50 [33] was 20.9 µM (inactive), the GI50 [34] was 19.5 µM (inactive) and the GI50 [58] was 26.6 µM (inactive). The GI50 [35] was 30.8 µM (inactive), the GI50 [36] was 17.4 µM (inactive) and the GI50 [37] was 15 µM (inactive). The GI50 [38] was 16.5 µM (inactive), the GI50 [39] was 15.3 µM (inactive) and the GI50 [40] was 16 µM (inactive). For the same compound, the GI50 [41] was 19.8 µM (inactive), the GI50 [42] was 15.9 µM (inactive) and the GI50 [44] was 34.6 µM (inactive). The GI50 [45] was 13.4 µM (inactive), the GI50 [46] was 16.5 µM (inactive) and the GI50 [47] was 17.2 µM (inactive). The GI50 [48] was 33.8 µM (inactive), the GI50 [59] was 18.8 µM (inactive) and the GI50 [49] was 14.6 µM (inactive). The GI50 [50] was 13.7 µM (inactive), the GI50 [51] was 14.2 µM (inactive) and the GI50 [52] was 14.7 µM (inactive). The GI50 [53] was 6.43 µM (inactive).
